# Measured values as given in US5245034A, “Compound having vessel smooth muscle relaxation activity” (Hidaka; Kiroyoshi, priority 1988, dated 1993).
# Tests used:
# washed platelets = experiment: Platelet Agglutination Inhibition (P.A.), collagen-induced; format: cell-based, human (healthy person); settings: Homo sapiens, washed platelets, collagen, 37° C., read-out: P.A. (IC50)
# Description: To this suspension was added one sixth volume of ACD solution, and the whole was further centrifuged at 1500×G for 5 minutes to prepare a platelet pellet. The platelet pellet was then suspended in a modified HEPES Tyrode solution to obtain about 3×10^5 /μl in washed platelet suspension.
# To 270 μl of the washed platelet suspension was added 3 μl of a solution of a test compound dissolved in an appropriate medium in different concentration, and the mixture was pre-incubated at 37° C. for 2 minutes.
# As a control, the above-mentioned procedure was carried out except that the test medium without a test compound was used, and the absorbance before addition of collagen and the maximum absorbance after addition of collagen were measured, and the difference between both absorbances was taken as 100% agglutination.
# For test compound, the absorbance before an addition of collagen and the maximum absorbance after an addition of collagen were measured, and a percent of the inhibition was determined, compared with the control.
# [1] = biological target: Calmodulin-Dependent Phosphodiesterase (Ca^2+ PDE); experiment: Calmodulin-Dependent Phosphodiesterase Inhibition (Ca^2+ PDE); format: biochemical, rat; settings: [^3 H]-cGMP, 30° C.
# Description: Phosphodiesterase (Ca^2+ PDE)Ca^2+ PDE was partially purified from the brain of rat by DEAE-Sepharose column chromatography.
# Calmodulin was purified from the calf brain using a calmodulin inhibitor W-7 affinity column.
# A reaction mixture contained 20 μl of 500 mM Tris-HCl (pH 8.0), 20 μl of 50 mM MgCl2, 20 μl of 2 mM CaCl2 (or 10 mM EGTA), 20 μl of 1 mg/ml bovine serum albumin, PDE, […] of calmodulin, test sample and distilled water to make total volume 200 μl. To the mixture was added 20 μl of 4 μM [^3 H]-cGMP (2.5 μCi/ml), the mixture was incubated at 30° C. for 15 minutes, and then heated in boiling water for 3 to 5 minutes to terminate the reaction, and cooled in ice-water bath. 20 μg of 5'-nucleotidase (Snake venum) was added to the mixture, and the mixture was again incubated at 30° C. for 10 minutes. After addition of about 2 ml of water, the sample was applied to a cation exchange resin column (Biorad AG.AG50W-X4 to adsorbe the [^3 H]-guanosine and additionally about 2 ml of washing water for the sample was added to the column. The column was washed with about 20 ml of water, and the adsorbed [^3 H]-guanosine was eluted with 3 ml of 3N NH4 OH, and the elute was directly received by a vial. After an addition of 10 ml of an emulsified scintillation solution (ACS-II, AMERSHAM) the radio activity was measured by a scintillation counter LS7500 (Beckmann). The enzyme activity in the presence of calmodulin was taken as […], and a concentration of a test compound in μM which provides a 50% inhibition was expressed as IC50.
# [2] = tested on: superior mesenteric artery (contracted by potassium chloride); experiment: Vessel Smooth Muscle Relaxation Action (V.R.); format: cell-based, rabbit; settings: Oryctolagus cuniculus; concentration relaxing KCl-contracted strain to 50%; cumulative administration; read-out: V.R. (ED50)
# From the text: The specimen was suspended by loading a strain in Krebs-Henseleit solution through which an oxygen gas containing 5% carbon dioxide was bubbled. The specimen was contracted by adding potassium chloride to maintain a predetermined strain. Thereafter, a test compound was cumulatively administrated.
Compound,IC50 (washed platelets) [µM],IC50 [1] [µM],EC50 [2] [µM]
"Cc1ccc(S(=O)(=O)N(C)c2ccc(CC(C(=O)N3CCN(c4ccccc4)CC3)N(C)S(=O)(=O)c3cccc4cnccc34)cc2)cc1 (centres unmarked) [Example 26, 1-{N-(5-isoquinolinesulfonyl)-N-methyl-p-[N'-methyl-N'-(p-toluenesulfonyl)amino]phenylalanyl}-4-phenylpiperazine]",10,–,–
"CN(C(Cc1ccc(OS(=O)(=O)c2cccc3cnccc23)cc1)CN1CCN(C(=O)OCc2ccccc2)CC1)S(=O)(=O)c1cccc2cnccc12 (centres unmarked) [Example 60, N-{2-(4-Benzyloxycarbonylpiperazinyl)-1-[P-(5-Isoquinolinesulfonyloxy)Benzyl]Ethyl}-N-Methyl-5-Isoquinolinesulfonamide]",10,–,–
"COc1ccc(N2CCN(CC(Cc3ccc(N)cc3)NS(=O)(=O)c3cccc4cnccc34)CC2)cc1 (centres unmarked) [Example 127, N-{1-(p-aminovenzyl)-2-[4-(p-methoxyphenyl)piperazinyl]ethyl}-5-isoquinolinesulfonamide]",39,–,–
O=S(=O)(NC(Cc1ccc(OS(=O)(=O)c2cccc3cnccc23)cc1)CN1CCCN(c2ccccc2)CC1)c1cccc2cnccc12 (centres unmarked) [Example 80],–,13,2.4
O=S(=O)(NC(Cc1ccc(OS(=O)(=O)c2cccc3cnccc23)cc1)CN1CCN(c2ccc(F)cc2)CC1)c1cccc2cnccc12 (centres unmarked) [Example 48],–,6.5,3.9
O=S(=O)(NC(Cc1ccc(OS(=O)(=O)c2cccc3cnccc23)cc1)CN1CCC(OCc2ccc(Cl)c(Cl)c2)CC1)c1cccc2cnccc12 (centres unmarked) [Example 86],–,24,13
"CN(C(Cc1ccc(O)cc1)CN1CCN(c2ccccc2)CC1)S(=O)(=O)c1cccc2cnccc12 (centres unmarked) [Example 36, N-[1-(P-Hydroxybenzyl)-2-(4-Phenylpiperazinyl)Ethyl]-N-Methyl-5-Isoquinolinesulfonamide]",–,10.5,0.81
"CN(c1ccc(CC(C(=O)N2CCN(c3ccccc3)CC2)N(C)S(=O)(=O)c2cccc3cnccc23)cc1)S(=O)(=O)c1cccc2cnccc12 (centres unmarked) [Example 23, 1-{N-(5-Isoquinolinesulfonyl)-P-[N'-(5-Isoquinolinesulfonyl)-N'-Methylamino]-N-Methylphenylalanyl}-4-Phenylpiperazine]",–,66,0.25
"CN(C(Cc1ccc(OS(=O)(=O)c2cccc3ccccc23)cc1)CN1CCN(c2ccccc2)CC1)S(=O)(=O)c1cccc2ccccc12 (stereo not drawn) [Example 57, N-methyl-N-{1-[p-(α-naphtharenesulfonyloxy) -benzyl]-2-(4-phenylpiperazinyl)ethyl}-α-naphtharenesulfonamide]",–,50,0.75
"CN(C(Cc1ccc(O)cc1)CN1CCC(OCc2ccc(Cl)c(Cl)c2)CC1)S(=O)(=O)c1cccc2cnccc12 (centres unmarked) [Example 90, N-{2-[4-(3,4-Dichlorobenzyloxy)Piperidino]-1-(P-Hydroxybenzyl)Ethyl}-N-Methyl-5-Isoquinolinesulfonamide]",–,3.4,0.33
"O=S(=O)(c1cccc2cnccc12)N1CCN(CC=Cc2ccc(Cl)cc2)CC1 [Example 191, 1-(4-Chlorocinnamyl)-4-(5-Isoquinolinesulfonyl)Piperazine]",–,26,1.9
"O=S(=O)(Nc1ccccc1NCC=Cc1ccc(Cl)cc1)c1cccc2cnccc12 [Example 142, N-[2-(4-Chlorocinnamylamino)Phenyl]-5-Isoquinolinesulfonamide]",–,1.1,6.8
"O=S(=O)(NCCNCC=CC=Cc1ccc(C(F)(F)F)cc1)c1cccc2cnccc12 [Example 180, N-{2-[5-(4-Trifluoromethylphenyl)-2,4-Pentadienylamino]Ethyl}-5-Isoquinolinesulfonamide]",–,4.8,1.8
"O=C([C@H](Cc1ccc(O)cc1)NS(=O)(=O)c1cccc2cnccc12)N1CCN(c2ccccc2)CC1 [Example 111, 1-[N-(5-isoquinolinesulfonyl)tyrosyl]-4-phenylpiperazine]",–,77,7
"CN(C(Cc1ccc(O)cc1)CN1CCN(c2ccccc2)CC1)S(=O)(=O)c1cccc2ccccc12 (stereo not drawn) [Example 58, N-[1-(p-hydroxybenzyl)-2-(4-phenylpiperazinyl)ethyl]-N-methyl-α-naphtharenesulfonamide]",–,63,0.25
"O=S(=O)(NCCNCC=Cc1ccc(F)cc1)c1cccc2cnccc12 [Example 175, N-[2-(4-Fluorocinnamylamino)ethyl]-5-Isoquinolinesulfonamide]",–,13,2
"COc1ccc(C=CCNCCNS(=O)(=O)c2cccc3cnccc23)cc1 [Example 178, N-[2-(4-Methoxycinnamylamino)ethyl]-5-Isoquinolinesulfonamide]",–,50,2.4
"O=S(=O)(NC(Cc1ccc(O)cc1)CN1CCCN(c2ccccc2)CC1)c1cccc2cnccc12 (centres unmarked) [Example 82, N-[1-(P-Hydroxybenzyl)-2-(4-Phenylhomopiperazinyl)Ethyl]-5-Isoquinolinesulfonamide]",–,33,0.86
"CN([C@@H](Cc1ccc(OS(=O)(=O)c2cccc3cnccc23)cc1)C(=O)N1CCN(c2ccccc2)CC1)S(=O)(=O)c1cccc2cnccc12 [Example 109, 1-[N,O-Bis(5-Isoquinolinesulfonyl)-N-Methyltyrosyl]-4-Phenylpiperazine]",–,1.3,0.59
"Cc1ccc(CN(C(Cc2ccc(O)cc2)CN2CCC(O)CC2)S(=O)(=O)c2cccc3cnccc23)cc1 (centres unmarked) [Example 106, N-[1-(P-Hydroxybenzyl)-2-(4-Hydroxypiperidino)Ethyl]-N-P-Methylbenzyl-5-Isoquinolinesufonamide]",–,28,8.9
"O=S(=O)(NC(Cc1ccc(O)cc1)CN1CCC(OCc2ccc(Cl)c(Cl)c2)CC1)c1cccc2cnccc12 (centres unmarked) [Example 87, N-{1-(p-hydroxybenzyl)-2-[4-(3,4-dichlorobenzyloxy)piperidino]ethyl}-5-isoquinolinesulfonamide]",–,1.9,1.7
"CN(c1ccc(CC(C(=O)N2CCN(c3ccccc3)CC2)N(C)S(=O)(=O)c2cccc3cnccc23)cc1)S(=O)(=O)c1cccc2ccccc12 (centres unmarked) [Example 25, 1-{N-(5-isoquinolinesulfonyl)-N-methyl-p-[N'-methyl-N'-(1-naphtharenesulfonyl)amino]phenylalanyl}-4-phenylpiperazine]",–,70,0.55
"CN(C(Cc1ccc(NS(C)(=O)=O)cc1)C(=O)N1CCN(c2ccccc2)CC1)S(=O)(=O)c1cccc2cnccc12 (centres unmarked) [Example 19, 1-[N-(5-Isoquinolinesulfonyl)-P-Methanesulfonylamino-N-Methylphenylalanyl]-4-Phenylpiperazine]",–,20,22
CC(C=Cc1ccccc1[N+](=O)[O-])NCCNS(=O)(=O)c1cccc2cnccc12 (centres unmarked) [Example 158],–,21,17
"CN(C(Cc1ccc(NS(=O)(=O)c2cccc3ccccc23)cc1)C(=O)N1CCN(c2ccccc2)CC1)S(=O)(=O)c1cccc2cnccc12 (centres unmarked) [Example 20, 1-[N-(5-isoquinolinesulfonyl)-N-methyl-p-(1-naphtharenesulfonylamino)phenylalanyl]-4-phenylpiperazine]",–,23,1
"CN([C@@H](Cc1ccc(O)cc1)C(=O)N1CCN(c2ccccc2)CC1)S(=O)(=O)c1cccc2cnccc12 [Example 110, 1-[N-(5-Isoquinolinesulfonyl)-N-Methyltyrosyl]-4-Phenylpiperazine]",–,9.3,3.8
"O=S(=O)(c1cccc2cnccc12)N1CCN(CC=Cc2ccc(Cl)cc2)c2ccccc21 [Example 144, 1-(4-Chlorocinnamyl)-4-(5-Isoquinolinesulfonyl)-1,2,3,4-Tetrahydroquinoxaline]",–,1,1.8
"CN(c1ccc(CC(C(=O)N2CCN(c3ccccc3)CC2)N(C)S(=O)(=O)c2cccc3cnccc23)cc1)S(C)(=O)=O (centres unmarked) [Example 24, 1-[N-(5-isoquinolinesulfonyl)-p-(N'-methanesulfonyl-N'-methylamino) N-methylphenylalanyl]-4-phenylpiperazine]",–,63,8.3
